Reference: ChEMBL document CHEMBL1153647, “Inhibitors of human leukocyte elastase. 3.1 inhibition by tetrahydrobenzisothiazolinylmethyl aryl carboxylates” (Bioorg Med Chem Lett, 1995)

What was measured:
[1] = biological target: T1, Neutrophil elastase (Homo sapiens) (UniProt P08246)
T1 sequence (whole entry): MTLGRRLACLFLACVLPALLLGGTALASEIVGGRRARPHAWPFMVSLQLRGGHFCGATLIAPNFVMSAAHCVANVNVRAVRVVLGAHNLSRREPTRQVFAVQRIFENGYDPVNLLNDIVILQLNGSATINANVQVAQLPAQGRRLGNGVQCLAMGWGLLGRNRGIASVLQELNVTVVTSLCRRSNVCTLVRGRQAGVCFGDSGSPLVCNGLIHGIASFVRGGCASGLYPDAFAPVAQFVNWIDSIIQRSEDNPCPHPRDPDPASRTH
Description: (§1) Compound was evaluated for the inhibitory activity against Human leukocyte elastase (HLE)

[2] = biological target: T1, Neutrophil elastase (Homo sapiens); remark: listed apart in the source
Description: as §1

Neutrophil elastase [3] = biological target: T2, Neutrophil elastase (Homo sapiens, UniProt P08246); assay: Observed binding affinity against Human leukocyte elastase (HLE)
T2 sequence (P08246 whole entry): T1 sequence (whole entry)

Neutrophil elastase [4] = biological target: T2, Neutrophil elastase; assay: Ratio of Kreact to that of Kinact was determined on human leukocyte elastase(HLE)
[5] = biological target: T1, Neutrophil elastase (Homo sapiens); assay: Compound was evaluated for the inhibitory activity against Human leukocyte elastase

Structure (SMILES) | K inact [1] [M⁻¹ s⁻¹] | Kreact [2] [s⁻¹] | Ki (Neutrophil elastase [3]) [nM] | Ki (Neutrophil elastase [4]) [nM] | K inact [5] [M⁻¹ s⁻¹] | Kreact [5] [s⁻¹]
CC1CCCC2=C1C(=O)N(COC(=O)c1c(Cl)cccc1Cl)S2(=O)=O (stereo not drawn) | 36000 | 3.6e-05 | 1 | 1 |  | 
CC1(C)CCCC2=C1C(=O)N(COC(=O)c1c(Cl)cccc1Cl)S2(=O)=O | 18500 | 1.8e-05 |  | 1 |  | 
CC(C)C1CCCC2=C1C(=O)N(COC(=O)c1c(Cl)cccc1Cl)S2(=O)=O (stereo not drawn) | 10000 | 1e-05 | 1 | 1 |  | 
O=C(OCN1C(=O)C2=C(C3CCC2C3)S1(=O)=O)c1c(Cl)cccc1Cl (stereo not drawn) |  |  |  | 0.8 |  | 
CC(C)c1cccc2c1C(=O)N(COC(=O)c1c(Cl)cccc1Cl)S2(=O)=O | 900000 | 2.7e-05 |  |  |  | 
CCC1CCCC2=C1C(=O)N(COC(=O)c1c(Cl)cccc1Cl)S2(=O)=O (stereo not drawn) | 83000 | 5.8e-05 | 0.708 | 0.7 |  | 
O=C(OCN1C(=O)C2=C(CCCC2)S1(=O)=O)c1c(Cl)cccc1Cl |  |  |  |  | 3300 | 5.9e-05
CCc1cccc2c1C(=O)N(COC(=O)c1c(Cl)cccc1Cl)S2(=O)=O |  |  | 0.0708 |  |  | 
O=C(OCN1C(=O)C2=C(CCCCC2)S1(=O)=O)c1c(Cl)cccc1Cl |  |  |  | 100 |  | 
O=C(OCN1C(=O)C2=C(CCC2)S1(=O)=O)c1c(Cl)cccc1Cl |  |  |  | 5 |  | 
